Patent US11548868B2, “Heterocyclic compounds, compositions comprising heterocyclic compound, and methods of use thereof” (JS INNOPHARM (SHANGHAI) LTD, priority 2017, dated 2023)

Tests used:
Recombinant human IDO1 = Recombinant human IDO1 (Homo sapiens, UniProt P14902); assay: IDO1 Enzymatic Assay; conditions: recombinant human IDO1 40 nM, L-tryptophan 100 μM, 40 min room temperature, N′-formylkynurenine absorbance 321 nm; read-out: IDO1 biochemical activity*
Procedure: The IDO1 biochemical inhibitory activity is determined by measuring the decrease in N′-formylkynurenine from tryptophan catalyzed by IDO1 enzyme. Recombinant human IDO1 (40 nM), L-tryptophan (100 μM), L-ascorbic acid (20 mM), methylene Blue (20 μM), catalase (0.2 mg/mL), and serial dilutions of the test compounds in a total volume of […] containing DMSO (with final DMSO concentration of 0.5%) and a pH 7.5 buffer containing potassium phosphate (50 mM) were added into each well in a 96-well plate. After incubation at room temperature for 40 min, the absorbance of the reaction mixture was read at 321 nm to measure the formation of N′-formylkynurenine by SpectraMax microplate reader. Percent inhibition of the test compounds was determined by measuring the decrease in N′-formylkynurenine as compared to the control of DMSO vehicle, which was calculated by formula of (WC−WT)/WC, where WC is the mean absorbance of the control well minus blank well; WT is the mean absorbance of the test well minus the blank well. Data was analyzed by GraphPad Prism 5 and the IC50 values were obtained by non-linear regression.
The IC50 values of IDO1 biochemical activity for the examples disclosed herein are listed in Table 2, A: ≤0.1 μM; B: >0.10 μM and ≤0.5 μM; C: >0.5 μM and ≤1.0 μM; and D: >1.0 μM.

[1] = target: T1, TDO2 in A172 cancer cells (Homo sapiens, UniProt P48775); assay: TDO2 Cellular Assay (kynurenine production in A172 cancer cells); format: cell-based; conditions: L-Trp 1 mM, 24 hours incubation, kynurenine at 490 nm
T1 construct: endogenous in cells; host or cells: A172 cancer cells
T1 sequence (P48775 whole entry): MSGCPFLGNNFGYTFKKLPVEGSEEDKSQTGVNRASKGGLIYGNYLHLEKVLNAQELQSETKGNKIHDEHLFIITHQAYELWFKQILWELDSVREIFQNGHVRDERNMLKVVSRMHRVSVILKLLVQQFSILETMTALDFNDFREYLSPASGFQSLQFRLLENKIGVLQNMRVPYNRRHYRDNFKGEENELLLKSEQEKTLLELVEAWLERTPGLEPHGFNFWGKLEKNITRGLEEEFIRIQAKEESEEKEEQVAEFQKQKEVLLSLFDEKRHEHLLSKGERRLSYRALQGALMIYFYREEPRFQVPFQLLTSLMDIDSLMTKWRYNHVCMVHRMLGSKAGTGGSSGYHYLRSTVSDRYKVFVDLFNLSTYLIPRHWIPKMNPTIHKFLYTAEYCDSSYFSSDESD
Summary of the method: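 A172 cells seeded overnight, then given 1 mM L-Trp and test compound (0–25 μM, 0.25% DMSO) for 24 h at 37 °C. Supernatant treated with TCA at 50 °C to convert N-formylkynurenine, kynurenine detected with p-dimethylaminobenzaldehyde at 490 nm; IC50 by non-linear regression of inhibition versus DMSO control.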

[2] = target: T2, IDO1 in Hela cancer cells (Homo sapiens, UniProt P14902); assay: IDO1 Cellular Assay (kynurenine production in IFN-γ stimulated Hela cancer cells); format: cell-based; conditions: human IFN-γ 50 ng/mL, 48 hours incubation, kynurenine at 490 nm
T2 construct: endogenous in cells; host or cells: Hela cancer cells stimulated with human IFN-γ
T2 sequence (P14902 whole entry): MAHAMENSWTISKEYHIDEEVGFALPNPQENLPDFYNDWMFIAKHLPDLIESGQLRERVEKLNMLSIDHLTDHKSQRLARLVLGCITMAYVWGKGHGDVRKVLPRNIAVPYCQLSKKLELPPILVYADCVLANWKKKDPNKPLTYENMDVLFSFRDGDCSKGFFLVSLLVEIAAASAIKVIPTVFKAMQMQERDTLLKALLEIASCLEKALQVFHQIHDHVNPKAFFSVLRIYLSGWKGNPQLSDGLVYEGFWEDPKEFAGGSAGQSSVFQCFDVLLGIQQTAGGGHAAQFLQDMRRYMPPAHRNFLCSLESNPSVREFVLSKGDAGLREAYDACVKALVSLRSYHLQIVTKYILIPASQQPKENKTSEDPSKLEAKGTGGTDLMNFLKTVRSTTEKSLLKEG
Summary of the method: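 HeLa cells stimulated with 50 ng/mL IFN-γ (final) and treated 48 h with compound (0–25 μM final, 0.25% DMSO). Supernatant kynurenine measured after TCA hydrolysis and p-dimethylaminobenzaldehyde reaction at 490 nm; inhibition vs DMSO control, IC50 by non-linear regression.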

Sequence of Recombinant human IDO1 (P14902 whole entry): as above

CC(=O)N1CCC2CN(c3cc(Cl)cc4[nH]ncc34)CC21 (stereo not drawn) [Example 19, 1-(5-(6-chloro-1H-indazol-4-yl)hexahydropyrrolo[3,4-b]pyrrol-1(2H)-yl)ethanone]
IC50 (Recombinant human IDO1): > 1000 nM
IC50 [1]: 500 to 1000 nM

CC(=O)N1C[C@@H]2CN(c3cc(Cl)cc4[nH]ncc34)C[C@@H]2C1 [Example 14, 1-((3aR,6aS)-5-(6-chloro-1H-indazol-4-yl)hexahydropyrrolo[3,4-c]pyrrol-2(1H)-yl)ethanone]
IC50 (Recombinant human IDO1): > 1000 nM
IC50 [1]: 500 to 1000 nM

Cn1ncc2c(N3CC4CCN(S(C)(=O)=O)C4C3)cc(Cl)cc21 (stereo not drawn) [Example 20, 6-chloro-1-methyl-4-(1-(methylsulfonyl)hexahydropyrrolo[3,4-b]pyrrol-5(1H)-yl)-1H-indazole]
IC50 (Recombinant human IDO1): > 1000 nM
IC50 [1]: > 5000 nM

CS(=O)(=O)N1CCC2CN(c3cc(Cl)cc4[nH]ncc34)CC21 (stereo not drawn) [Example 23, 6-chloro-4-(1-(methylsulfonyl)hexahydropyrrolo[3,4-b]pyrrol-5(1H)-yl)-1H-indazole]
IC50 (Recombinant human IDO1): > 1000 nM
IC50 [1]: 500 to 1000 nM

CS(=O)(=O)N1CCCC2CN(c3cc(Cl)cc4[nH]ncc34)CC21 (stereo not drawn) [Example 13, 6-chloro-4-(1-(methylsulfonyl)hexahydro-1H-pyrrolo[3,4-b]pyridin-6(2H)-yl)-1H-indazole]
IC50 (Recombinant human IDO1): > 1000 nM
IC50 [1]: 500 to 1000 nM

CC1(C)C2CN(c3cc(Cl)cc4[nH]ncc34)CC2CN1S(=O)(=O)C1CC1 (stereo not drawn) [Example 28, 6-chloro-4-(5-(cyclopropylsulfonyl)-4,4-dimethylhexahydropyrrolo[3,4-c]pyrrol-2(1H)-yl)-1H-indazole]
IC50 (Recombinant human IDO1): > 1000 nM
IC50 [1]: ≤ 500 nM

CS(=O)(=O)N1C[C@H]2CN(c3cc(Cl)cc4[nH]ncc34)C[C@H]2C1 [Example 12, 6-chloro-4-((3aR,6aS)-5-(methylsulfonyl)hexahydropyrrolo[3,4-c]pyrrol-2(1H)-yl)-1H-indazole]
IC50 (Recombinant human IDO1): > 1000 nM
IC50 [1]: ≤ 500 nM

CC(=O)N1CCCC2CN(c3cc(Cl)cc4[nH]ncc34)CC21 (stereo not drawn) [Example 15, 1-(6-(6-chloro-1H-indazol-4-yl)octahydro-1H-pyrrolo[3,4-b]pyridin-1-yl)ethanone]
IC50 (Recombinant human IDO1): > 1000 nM
IC50 [1]: ≤ 500 nM

CC(=O)NC1[C@H]2CN(c3cc(Cl)cc4[nH]ncc34)C[C@@H]12 (stereo partly drawn) [Example 17, N-((1R,5S)-3-(6-chloro-1H-indazol-4-yl)-3-azabicyclo[3.1.0]hexan-6-yl)acetamide]
IC50 (Recombinant human IDO1): > 1000 nM
IC50 [1]: 1000 to 5000 nM

CC1(C)C2CN(c3cc(Cl)cc4[nH]ncc34)CC2CN1C(=O)c1ccc(C#N)cc1 (stereo not drawn) [Example 27, 4-(5-(6-chloro-1H-indazol-4-yl)-1,1-dimethyloctahydropyrrolo[3,4-c]pyrrole-2-carbonyl)benzonitrile]
IC50 (Recombinant human IDO1): > 1000 nM
IC50 [1]: 500 to 1000 nM

CC(=O)N[C@@H]1[C@@H]2CN(c3cc(Cl)cc4[nH]ncc34)C[C@@H]21 [Example 21, N-((1R,5S,6r)-3-(6-chloro-1H-indazol-4-yl)-3-azabicyclo[3.1.0]hexan-6-yl)acetamide]
IC50 (Recombinant human IDO1): > 1000 nM
IC50 [1]: 1000 to 5000 nM

CS(=O)(=O)NC1[C@H]2CN(c3cc(Cl)cc4[nH]ncc34)C[C@@H]12 (stereo partly drawn) [Example 16, N-((1R,5S)-3-(6-chloro-1H-indazol-4-yl)-3-azabicyclo[3.1.0]hexan-6-yl)methanesulfonamide]
IC50 (Recombinant human IDO1): > 1000 nM
IC50 [1]: 1000 to 5000 nM

CNS(=O)(=O)N[C@H]1[C@@H]2C[C@@](O)(c3cc(C(F)(F)F)cc4[nH]ncc34)C[C@@H]21 [Example 162, N′-methyl-N-((1R,3r,5S,6r)-3-hydroxy-3-(6-(trifluoromethyl)-1H-indazol-4-yl)bicyclo[3.1.0]hexan-6-yl)sulfuric diamide]
IC50 [1]: ≤ 500 nM
IC50 [2]: ≤ 500 nM

CC(=O)N1C[C@@H]2C[C@@](O)(c3cc(Cl)cc4cn[nH]c34)C[C@@H]2C1 [Example 8, 1-((3aR,5r,6aS)-5-(5-chloro-1H-indazol-7-yl)-5-hydroxyhexahydrocyclopenta[c]pyrrol-2(1H)-yl)ethanone]
IC50 [1]: > 5000 nM
IC50 [2]: > 5000 nM

O=S(=O)(c1ccccc1)N1C[C@@H]2C[C@@](O)(c3cc(Cl)cc4cn[nH]c34)C[C@@H]2C1 [Example 102, (3aR,5r,6aS)-5-(5-chloro-1H-indazol-7-yl)-2-(phenylsulfonyl)octahydrocyclopenta[c]pyrrol-5-ol]
IC50 [1]: > 5000 nM
IC50 [2]: > 5000 nM

O=C(CC(F)(F)F)N[C@H]1[C@@H]2C[C@@](O)(c3cc(Cl)cc4[nH]ncc34)C[C@@H]21 [Example 138, N-((1R,3r,5S,6r)-3-(6-chloro-1H-indazol-4-yl)-3-hydroxybicyclo[3.1.0]hexan-6-yl)-3,3,3-trifluoropropanamide]
IC50 [1]: ≤ 500 nM
IC50 [2]: > 5000 nM

CC(=O)N1C[C@H]2CC(C(O)c3cc(Cl)cc4[nH]ncc34)C[C@H]2C1 (stereo partly drawn) [Example 104, 1-((3aR,6aS)-5-((6-chloro-1H-indazol-4-yl)(hydroxy)methyl)hexahydrocyclopenta[c]pyrrol-2(1H)-yl)ethanone]
IC50 [1]: 500 to 1000 nM
IC50 [2]: > 5000 nM

CC(=O)N1C[C@@H]2CN(c3cc(Cl)cn4cncc34)C[C@@H]2C1(C)C (racemic) [Example 41, Racemic-1-((3aS,6aR)-5-(6-chloroimidazo[1,5-a]pyridin-8-yl)-1,1-dimethylhexahydropyrrolo[3,4-c]pyrrol-2(1H)-yl)ethanone]
IC50 [1]: 1000 to 5000 nM
IC50 [2]: > 5000 nM

CC(=O)N1C[C@@H]2CN(c3cc(C(F)(F)F)cc4cncn34)C[C@@H]2C1(C)C (racemic) [Example 51, Racemic-1-((3aS,6aR)-1,1-dimethyl-5-(7-(trifluoromethyl)imidazo[1,5-a]pyridin-5-yl)hexahydropyrrolo[3,4-c]pyrrol-2(1H)-yl)ethanone]
IC50 [1]: > 5000 nM
IC50 [2]: > 5000 nM

CS(=O)(=O)N[C@@H]1[C@@H]2CN(c3cc(Cl)cc4[nH]ncc34)C[C@@H]21 [Example 24, N-((1R,5S,6r)-3-(6-chloro-1H-indazol-4-yl)-3-azabicyclo[3.1.0]hexan-6-yl)methanesulfonamide]
IC50 (Recombinant human IDO1): > 1000 nM
IC50 [1]: 1000 to 5000 nM

O=C(NC1CCCCC1)N[C@H]1[C@@H]2C[C@@](O)(c3cc(Cl)cc4[nH]ncc34)C[C@@H]21 [Example 126, 1-((1R,3r,5S,6r)-3-(6-chloro-1H-indazol-4-yl)-3-hydroxybicyclo[3.1.0]hexan-6-yl)-3-cyclohexylurea]
IC50 [1]: ≤ 500 nM
IC50 [2]: > 5000 nM

CC1(C)[C@H]2CN(c3cc(C(F)(F)F)cc4cncn34)C[C@H]2CN1S(C)(=O)=O (racemic) [Example 50, Racemic-5-((3aR,6aS)-4,4-dimethyl-5-(methylsulfonyl)hexahydropyrrolo[3,4-c]pyrrol-2(1H)-yl)-7-(trifluoromethyl)imidazo[1,5-a]pyridine]
IC50 [1]: > 5000 nM
IC50 [2]: > 5000 nM

O=C(Nc1ccccc1)N[C@H]1[C@@H]2C[C@@](O)(c3cc(Cl)cc4[nH]ncc34)C[C@@H]21 [Example 115, 1-((1R,3r,5S,6r)-3-(6-chloro-1H-indazol-4-yl)-3-hydroxybicyclo[3.1.0]hexan-6-yl)-3-phenylurea]
IC50 [1]: ≤ 500 nM
IC50 [2]: 1000 to 5000 nM

CC(=O)N[C@H]1C[C@@H]2C[C@@](O)(c3cc(Cl)cc4[nH]ncc34)C[C@@H]2C1 [Example 167, N-((2r,3aR,5r,6aS)-5-(6-chloro-1H-indazol-4-yl)-5-hydroxyoctahydropentalen-2-yl)acetamide]
IC50 [1]: ≤ 500 nM
IC50 [2]: > 5000 nM

CS(=O)(=O)Nc1cccc(C(=O)N[C@H]2[C@@H]3C[C@@](O)(c4cc(Cl)cc5[nH]ncc45)C[C@@H]32)c1 [Example 141, N-((1R,3r,5S,6r)-3-(6-chloro-1H-indazol-4-yl)-3-hydroxybicyclo[3.1.0]hexan-6-yl)-3-(methylsulfonamido)benzamide]
IC50 [1]: 500 to 1000 nM
IC50 [2]: > 5000 nM

CNC(=O)N[C@H]1[C@@H]2C[C@@](O)(c3cc(Cl)cc4[nH]ncc34)C[C@@H]21 [Example 114, 1-((1R,3r,5S,6r)-3-(6-chloro-1H-indazol-4-yl)-3-hydroxybicyclo[3.1.0]hexan-6-yl)-3-methylurea]
IC50 [1]: ≤ 500 nM
IC50 [2]: > 5000 nM

O[C@@H]1C[C@@H]2C[C@@](O)(c3cc(Cl)cc4[nH]ncc34)C[C@@H]2C1 [Example 32, (2r,3aR,5s,6aS)-2-(6-chloro-1H-indazol-4-yl)octahydropentalene-2,5-diol]
IC50 [1]: ≤ 500 nM
IC50 [2]: 1000 to 5000 nM
